Results as given in patent US9828362B2, “1,4-disubstituted imidazole derivative” (Sumitomo Dainippon Pharma Co., Ltd., priority 2015, dated 2017).
pIC50: −log10 of the molar value.

Columns and labels:
HCT-116 tumor = test: Anti-tumor effect to HCT-116 tumor-bearing mouse; format: in vivo; details: nude mouse, oral, dosage 30 mg/kg, administration period 17 days, tumor volume
Excerpt: The present compound can be used to evaluate the anti-tumor effect thereof. A 4 to 7-week-old nude mouse (BALB/cAnNCrj-nu/nu, female, CHARLES RIVER LABORATORIES JAPAN, INC.) received intradermal transplantation of HCT-116 cells (ATCC) in an amount of 3×10^6 cells/mouse around the ventral portion. The engraftment of HCT-116 cells was observed 5 to 14 days after the transplantation, and then each compound suspended in a solvent such as 0.5% methylcellulose solution was orally administrated to the mouse in a dose of 1 to 100 mg/kg one to twice daily. The tumor volume was measured over time after the administration. to evaluate the effect for reducing the tumor volume by the administration of each compound. The tumor volume can be calculated from the minor axis and the major axis of the tumor measured with a digital caliper (Mitutoyo) according to the following formula: Tumor volume [mm^3]=0.5×minor axis [mm]×(major axis [ram])^2
The tumor volume is control administration group treated. with only a solvent such as 0.5% methylcellulose solution was compared with that of the present compound administration group, and T/C value was calculated according the following formula to evaluate the anti-tumor effect of the present compound. […]

HCT-116 cells = test: Test for inhibiting sphere-forming ability of cancer cells (in the presence of BSA); format: cell-based; details: Homo sapiens, 96 h, Ultra-Low Attachment plate, medium with 5% bovine serum albumin (BSA), cultured 4 days, CellTiter-Glo, read-out: Sphere IC50 value (concentration for 50% inhibition of cell proliferation)
Experimental: HCT-116 cells were available from the American Type Culture Collection (ATCC). HCT-116 cells were cultured at 37° C. and 5% CO2 using the McCoy's 5a medium containing 10% fetal bovine serum (FBS) and 1% penicillin/streptomycin. […] The test compounds were added into each well to adjust the final concentration of DMSO to 0.1%, and the cells were cultured for 4 days.

pIC50 (HCT-116 cells) | Compound | T/C (%) (HCT-116 tumor)
 | Nc1cc(C(=O)Nc2cn(Cc3cc(F)c(F)c(F)c3)cn2)cnc1CO [Example 46] | 91
< 5.00 | CC(C)(O)c1ccc(/C=C/C(=O)Nc2cn(Cc3cccc(C(F)(F)F)c3)cn2)cn1 [Example 53, (2E)-3-[6-(2-Hydroxypropan-2-yl)pyridin-3-yl]-N-{1-[3-(trifluoromethyl)benzyl]-1H-imidazol-4-yl}prop-2-enamide] | 
